Test results as given in the supplement of paper PMC10307832.

Experiments:
Assay in all cases: relative viability (nuclei count vs DMSO), 5 days (fraction); higher = more cells survive
[1] = compound: COc1cc(-c2nn([C@H]3CC[C@H](N4CCN(C(C)=O)CC4)CC3)c3ncnc(N)c23)ccc1NC(=O)c1cc2ccccc2n1C
Method in brief: (§1)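 After an overnight hold at 37 °C, lung cancer cell lines in 1536-well plates were pinned with five library-drug doses (not always all listed), each √10 from the next, on vehicle-anchored plates. The cells stayed 5 days without fresh medium, then a one-step fix, permeabilisation and Hoechst stain preceded 4× imaging and MetaXpress nuclear counts. A plate passed only with control CV under 25% and at least one doubling. Viability is the median, over plates, of treated-well nuclei relative to vehicle-well nuclei.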

Midostaurin = compound: CO[C@@H]1[C@H](N(C)C(=O)c2ccccc2)C[C@H]2O[C@]1(C)n1c3ccccc3c3c4c(c5c6ccccc6n2c5c31)C(=O)NC4 [Midostaurin]
Method in brief: as §1

Midostaurin + Pictilisib = compound: CO[C@@H]1[C@H](N(C)C(=O)c2ccccc2)C[C@H]2O[C@]1(C)n1c3ccccc3c3c4c(c5c6ccccc6n2c5c31)C(=O)NC4 [Midostaurin] + CS(=O)(=O)N1CCN(Cc2cc3nc(-c4cccc5[nH]ncc45)nc(N4CCOCC4)c3s2)CC1 [Pictilisib] (partner 1 µM)
Method in brief: (§2)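 Relative viability was taken as the ratio of nuclei in treated wells to nuclei in vehicle wells. Lung cancer cell lines in 1536-well plates received compounds by pin tool one day after seeding, either one drug alone or a fixed anchor-drug dose plus five library-drug doses (not always all listed) in √10 steps. Nuclei were counted on 4× images after 5 days of treatment, and values are medians of duplicate plates.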

[2] = compound: COc1cc(-c2nn([C@H]3CC[C@H](N4CCN(C(C)=O)CC4)CC3)c3ncnc(N)c23)ccc1NC(=O)c1cc2ccccc2n1C + COc1cc2c(Oc3ccc(NC(=O)C4(C(=O)Nc5ccc(F)cc5)CC4)cc3F)ccnc2cc1OCCCN1CCOCC1 [Foretinib] (partner 0.25 µM)
Method in brief: as §2

[3] = compound: COc1cc(-c2nn([C@H]3CC[C@H](N4CCN(C(C)=O)CC4)CC3)c3ncnc(N)c23)ccc1NC(=O)c1cc2ccccc2n1C + CS(=O)(=O)N1CCN(Cc2cc3nc(-c4cccc5[nH]ncc45)nc(N4CCOCC4)c3s2)CC1 [Pictilisib] (partner 1 µM)
Method in brief: as §2

UMC-11 showed a relative viability ([1]; 0.0128 µM) of 1.04, a relative viability ([1]; 0.04048 µM) of 0.955 and a relative viability ([1]; 0.128 µM) of 0.927. For the same cell line, the relative viability ([1]; 1.28 µM) was 0.84, the relative viability (Midostaurin; 0.01 µM) was 0.984 and the relative viability (Midostaurin; 0.03162 µM) was 0.901. The relative viability (Midostaurin; 0.1 µM) was 1, the relative viability (Midostaurin; 0.3162 µM) was 0.617 and the relative viability (Midostaurin + Pictilisib; first compound 0.01 µM) was 0.859. It also gave a relative viability (Midostaurin + Pictilisib; first compound 0.03162 µM) of 0.602, a relative viability (Midostaurin + Pictilisib; first compound 0.1 µM) of 0.871 and a relative viability (Midostaurin + Pictilisib; first compound 0.3162 µM) of 0.663. The relative viability ([2]; first compound 0.0128 µM) was 0.967, the relative viability ([2]; first compound 0.04048 µM) was 1.07 and the relative viability ([2]; first compound 0.128 µM) was 0.943. The relative viability ([2]; first compound 1.28 µM) was 0.806, the relative viability ([3]; first compound 0.0128 µM) was 0.89 and the relative viability ([3]; first compound 0.04048 µM) was 0.788. For the same cell line, the relative viability ([3]; first compound 0.128 µM) was 0.767 and the relative viability ([3]; first compound 1.28 µM) was 0.71.
